From US8192962B2, “Processes for detecting toxic substances” (Daikin Industries, Ltd., priority 2001, dated 2012)

System: Mitochondria-located protein genes
Experiment: DNA chip mRNA expression in yeast, mitochondria-located protein genes (Table 2)
Assay type: cell-based, Saccharomyces cerevisiae S288C
Conditions: cells incubated two hours with the chemical substance
Procedure, shortened: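 Cells were grown at 25° C. in YPD, treated at logarithmic phase for 2 h with a chemical at a concentration inhibiting growth but not causing death, and compared with untreated cultures. Labeled cDNA was hybridized to a DNA chip carrying all yeast genes, and the expression ratio was taken from scanner fluorescence.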

Measured: The level of expressed mRNA in the presence of chemical substance/The level of expressed mRNA in the absence of chemical substance

O=[N+]([O-])c1cc[n+]([O-])c2ccccc12 [(5), 4-nitroquinolin-N-oxide]
1.7: yeast gene YDL181W | yeast gene YML129C | yeast gene YMR023C
1.3: yeast gene YBR221C | yeast gene YBR251W | yeast gene YDR258C | yeast gene YDR298C | yeast gene YEL024W | yeast gene YFL016C | yeast gene YGL187C | yeast gene YIL155C | yeast gene YJL102W | yeast gene YKL170W | yeast gene YML054C | yeast gene YPR024W
0.6: yeast gene YHR008C | yeast gene YLR304C | yeast gene YML120C | yeast gene YMR203W | yeast gene YNL071W | yeast gene YNL073W | yeast gene YOR187W | yeast gene YPL262W
0.9: yeast gene YBL038W | yeast gene YDR178W | yeast gene YEL039C | yeast gene YGL191W | yeast gene YGR008C | yeast gene YGR028W | yeast gene YGR076C | yeast gene YGR082W | yeast gene YJL133W | yeast gene YJR077C | yeast gene YLR348C | yeast gene YNL055C | yeast gene YPR047W
1.0: yeast gene YBL099W | yeast gene YBR282W | yeast gene YCR046C | yeast gene YGR174C | yeast gene YKL003C | yeast gene YKR066C | yeast gene YMR267W | yeast gene YNL256W | yeast gene YOR100C | yeast gene YOR176W | yeast gene YOR316C
1.8: yeast gene YKL194C | yeast gene YLR038C | yeast gene YOR130C
1.5: yeast gene YBR122C | yeast gene YJL180C | yeast gene YKL016C | yeast gene YKL141W | yeast gene YMR083W | yeast gene YOR020C | yeast gene YOR037W | yeast gene YPR134W
2.2: yeast gene YLR295C | yeast gene YMR193W
0.5: yeast gene YJR045C
0.8: yeast gene YBR185C | yeast gene YDR347W | yeast gene YGR244C | yeast gene YJR121W | yeast gene YKL148C | yeast gene YMR035W | yeast gene YMR089C | yeast gene YMR152W | yeast gene YNL104C | yeast gene YOR150W | yeast gene YPL040C | yeast gene YPL215W | yeast gene YPR037C
1.1: yeast gene YAL039C | yeast gene YBR091C | yeast gene YCL057W | yeast gene YDR231C | yeast gene YGL018C | yeast gene YLR259C
2.0: yeast gene YDL067C
0.7: yeast gene YBL030C | yeast gene YBR003W | yeast gene YDL198C | yeast gene YER178W | yeast gene YGR062C | yeast gene YKL142W | yeast gene YLR395C
1.6: yeast gene YCR083W | yeast gene YJL166W | yeast gene YLL041C | yeast gene YPL135W
1.4: yeast gene YBR044C | yeast gene YOR142W | yeast gene YPL134C
1.2: yeast gene YBL022C | yeast gene YDR079W | yeast gene YDR529C | yeast gene YOL096C
1.9: yeast gene YDR377W | yeast gene YJL096W
